From patent US20250327032A1, “AGENT FOR AVOIDING IMMUNE RESPONSE OF TRANSGENIC CELLS” (HYPERION DRUG DISCOVERY CO., LTD., priority 2021, published 2025)

Test system: TNF-α
Test: TNF-α expression level (qPCR) after introduction of GFP mRNA containing pseudouridine
Format: cell-based
Conditions: human mesenchymal stem cells; JSH-23 10 μM; GFP mRNA containing pseudouridine 10 pg/cell; compared to pseudouridine only
Method: Reduction of TNF-α expression level using JSH-23 in introduction of GFP mRNA into human mesenchymal stem cells (hMSCs) Human mesenchymal stem cells were seeded in a 6-well plate to be about 10,000 cells/cm^2. As a culture solution, αMEM (+10% serum) supplemented with 10 μM of JSH-23 was used. As a control, αMEM (+10% serum) supplemented with 0.1% (v/v) DMSO instead of JSH-23 was used as a culture solution.
A lipofection solution was prepared by adding Lipofectamine RNAiMAX and fluorescent protein GFP mRNA to OptiMEM. The GFP mRNA containing pseudouridine instead of uridine was used. It was prepared so that the amount of mRNA was 10 pg/cell. The prepared lipofection solution was mixed well according to the manufacturer's recommended protocol and allowed to stand at room temperature for about 15 minutes.
Next, each lipofection solution was added to the plate seeded with human mesenchymal stem cells or human myoblasts, and cultured in a CO2 incubator at 37° C. for about 1 day (18 hours). […]
cDNA was synthesized from the purified RNA using SuperScript™ III Reverse Transcriptase according to the manufacturer's protocol. qPCR was performed using synthesized cDNA and PCR primers and PowerTrack™ SYBR Green Master Mix. The measured Ct value of TNF-α was normalized with the Ct value of β-actin, a housekeeping gene.

Q: `Cc1ccc(NCCCc2ccccc2)c(N)c1` [JSH-23] was tested. Which “expression level of TNF-α (normalized with β-actin)” value did it give?
A: The value was “further reduced”.
